Experimental data published in ChEMBL document CHEMBL1201862, “PubChem BioAssay data set” (2004).
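Values below derive from 48-hour exposures of cells grown in 96-well plates, with endpoints linearly interpolated between the two concentrations bracketing the appropriate inhibition level. GI50 marks 50% less growth.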 The source made the active and inactive calls. No stated cut-off is given here; in the data, active = GI50 up to about 1.1 µM and inactive = higher.

Tests used:
Assay in all cases: NCI-60 cell line screen, 48 h
SW-620 = test system: SW-620
OVCAR-8 = test system: OVCAR-8
HCC 2998 = test system: HCC 2998
DLD-1 = test system: DLD-1
LXFL 529 = test system: LXFL 529
DMS-273 = test system: DMS-273
K562 = test system: K562
HOP-62 = test system: HOP-62
CAKI-1 = test system: CAKI-1
DMS-114 = test system: DMS-114
OVCAR-3 = test system: OVCAR-3
A498 = test system: A498
UO-31 = test system: UO-31
A549 = test system: A549
RXF 393 = test system: RXF 393
SNB-78 = test system: SNB-78
SNB-75 = test system: SNB-75
U-251 = test system: U-251
HCT-15 = test system: HCT-15
HT-29 = test system: HT-29
SK-MEL-28 = test system: SK-MEL-28
SF-268 = test system: SF-268
UACC-257 = test system: UACC-257
SK-MEL-2 = test system: SK-MEL-2
NCI-H23 = test system: NCI-H23
IGROV-1 = test system: IGROV-1
HL-60 = test system: HL-60
SK-OV-3 = test system: SK-OV-3
MOLT-4 = test system: MOLT-4
ACHN = test system: ACHN
786-0 = test system: 786-0
OVCAR-4 = test system: OVCAR-4
SF-295 = test system: SF-295
M14 = test system: M14
SF-539 = test system: SF-539
LOX IMVI = test system: LOX IMVI
OVCAR-5 = test system: OVCAR-5
M19-MEL = test system: M19-MEL
HOP-18 = test system: HOP-18
SN12C = test system: SN12C
HOP-92 = test system: HOP-92
CCRF-CEM = test system: CCRF-CEM
RXF 631 = test system: RXF 631
NCI-H522 = test system: NCI-H522
EKVX = test system: EKVX
NCI-H226 = test system: NCI-H226
Malme-3M = test system: Malme-3M
TK-10 = test system: TK-10

CN(C)C(=S)/N=c1\ss/c(=N\c2ccccc2)n1-c1ccccc1
GI50 (SW-620): 25 µM (inactive) | GI50 (OVCAR-8): 19.2 µM (inactive) | GI50 (HCC 2998): 18.7 µM (inactive) | GI50 (DLD-1): 28.4 µM (inactive) | GI50 (LXFL 529): 0.0542 µM (active) | GI50 (DMS-273): 16.6 µM (inactive) | GI50 (K562): 11.2 µM (inactive) | GI50 (HOP-62): 27.2 µM (inactive) | GI50 (CAKI-1): 34.3 µM (inactive) | GI50 (DMS-114): 1.44 µM (inactive) | GI50 (OVCAR-3): 13.7 µM (inactive) | GI50 (A498): 34 µM (inactive) | GI50 (UO-31): 32.9 µM (inactive) | GI50 (A549): 25.6 µM (inactive) | GI50 (RXF 393): 16.3 µM (inactive) | GI50 (SNB-78): 20.7 µM (inactive) | GI50 (SNB-75): 14.8 µM (inactive) | GI50 (U-251): 24.7 µM (inactive) | GI50 (HCT-15): 23.2 µM | GI50 (HT-29): 0.154 µM (active) | GI50 (SK-MEL-28): 29 µM (inactive) | GI50 (SF-268): 21.6 µM (inactive) | GI50 (UACC-257): 24.2 µM (inactive) | GI50 (SK-MEL-2): 29.5 µM (inactive) | GI50 (NCI-H23): 25.8 µM (inactive) | GI50 (IGROV-1): 25.1 µM (inactive) | GI50 (HL-60): 24.6 µM (inactive) | GI50 (SK-OV-3): 40.6 µM (inactive) | GI50 (MOLT-4): 30 µM (inactive) | GI50 (ACHN): 25.2 µM (inactive) | GI50 (786-0): 16.1 µM (inactive) | GI50 (OVCAR-4): 0.275 µM (active) | GI50 (SF-295): 28.6 µM (inactive) | GI50 (M14): 14.7 µM (inactive) | GI50 (SF-539): 16.3 µM (inactive) | GI50 (LOX IMVI): 17.1 µM (inactive) | GI50 (OVCAR-5): > 100 µM (inactive) | GI50 (M19-MEL): 24.7 µM (inactive) | GI50 (HOP-18): 28.5 µM (inactive) | GI50 (SN12C): 49.5 µM (inactive) | GI50 (HOP-92): 12.5 µM (inactive) | GI50 (CCRF-CEM): 0.435 µM (active) | GI50 (RXF 631): 29.9 µM (inactive) | GI50 (NCI-H522): 1.21 µM (inactive) | GI50 (EKVX): 37.3 µM (inactive) | GI50 (NCI-H226): 10.7 µM (inactive) | GI50 (Malme-3M): 21.3 µM (inactive) | GI50 (TK-10): 25.8 µM (inactive)
